The source of these data is US20240425500A1 (priority 2021, published 2024).

Each structure is given as a SMILES string.

For one test, the system named is Phytophthora infestans. The test is described as follows: whole plant or invertebrate. The test is classed as in vivo. To be noted: in Solanum lycopersicum, foliar, read-out: control of Phytophthora infestans compared to untreated control.
The next test deals with Plasmopara viticola. As to the kind of experiment: whole plant or invertebrate. The format is in vivo. To be noted: foliar, read-out: control of Plasmopara viticola compared to untreated control.
For a further test, the system named is Pythium ultimum. As to the kind of experiment: Pythium ultimum / liquid culture (seedling damping off). The format is cell-based. The note with it: Globisporangium ultimum, liquid culture in PDB, 24 °C, 2-3 days after application, read-out: control of Pythium ultimum (inhibition of growth, photometric) compared to untreated control. The protocol:
Pythium ultimum/Liquid Culture (Seedling Damping Off):
Mycelia fragments and oospores of a newly grown liquid culture of the fungus are directly mixed into nutrient broth (PDB potato dextrose broth). After placing a (DMSO) solution of test compound into a microtiter plate (96-well format), the nutrient broth containing the fungal mycelia/spore mixture is added. The test plates are incubated at 24° C. and the inhibition of growth is determined photometrically 2-3 days after application.

As for `COC(=O)Nc1ccc(-c2cnc3c(C)cc(C(=O)N(C)c4ccc(F)c(Cl)c4)cn23)cn1` [Compound 171, methyl N-[5-[6-[(3-chloro-4-fluoro-phenyl)-methyl-carbamoyl]-8-methyl-imidazo[1,2-a]pyridin-3-yl]-2-pyridyl]carbamate], the pest or weed control at 200 ppm with Phytophthora infestans and in the test on Plasmopara viticola was at least 80% each time. Also, in the test on Pythium ultimum, the inhibition at 20 ppm was at least 80%.

For the compound `COCCN(C(=O)c1ccc2ncc(-c3ccc(NC(=O)OC)nc3)n2c1)c1ccc(F)c(OC)c1` [Compound 173, methyl N-[5-[6-[(4-fluoro-3-methoxy-phenyl)-(2-methoxyethyl)carbamoyl]imidazo[1,2-a]pyridin-3-yl]-2-pyridyl]carbamate], the pest or weed control at 200 ppm in the test with Phytophthora infestans and in the test with Plasmopara viticola was at least 80% throughout. Further, the inhibition at 20 ppm in the test on Pythium ultimum was at least 80%.

For `COC(=O)Nc1ccc(-c2cnc3ccc(C(=O)N(CC#N)c4ccc(Cl)c(OC)c4)cn23)cn1` [Compound 90, methyl N-[5-[6-[(4-chloro-3-methoxy-phenyl)-(cyanomethyl)carbamoyl]imidazo[1,2-a]pyridin-3-yl]-2-pyridyl]carbamate], the pest or weed control at 200 ppm in the test with Phytophthora infestans and in the test on Plasmopara viticola was at least 80% each time. In addition, the inhibition at 20 ppm in the test with Pythium ultimum was at least 80%.

For the compound `CCN(C(=O)c1ccc2ncc(-c3ccc(NC(=O)OC)nc3)n2c1)c1ccc(F)c(OC)c1` [Compound 178, methyl N-[5-[6-[ethyl-(4-fluoro-3-methoxy-phenyl)carbamoyl]imidazo [1,2-a]pyridin-3-yl]-2-pyridyl]carbamate], the pest or weed control at 200 ppm with Phytophthora infestans and in the test with Plasmopara viticola was at least 80% in each case. In the test with Pythium ultimum, the inhibition at 20 ppm is at least 80%.

For `COC(=O)Nc1ccc(-c2cnc3c(C)cc(C(=O)N(C)c4ccc(F)c(F)c4)cn23)cn1` [Compound 174, methyl N-[5-[6-[(3,4-difluorophenyl)-methyl-carbamoyl]-8-methyl-imidazo[1,2-a]pyridin-3-yl]-2-pyridyl]carbamate], the pest or weed control at 200 ppm in the test with Phytophthora infestans and in the test with Plasmopara viticola was at least 80% each time. The inhibition at 20 ppm in the test with Pythium ultimum was at least 80%.

On to `COCN(C(=O)c1ccc2ncc(-c3ccc(NC(=O)OC)nc3)n2c1)c1ccc(F)c(OC)c1` [Compound 93, methyl N-[5-[6-[(4-fluoro-3-methoxy-phenyl)-(methoxymethyl)carbamoyl]imidazo[1,2-a]pyridin-3-yl]-2-pyridyl]carbamate], for which the pest or weed control at 200 ppm in the test on Phytophthora infestans and with Plasmopara viticola was at least 80% throughout. Further, the inhibition at 20 ppm with Pythium ultimum was at least 80%.

Turning to `COC(=O)Nc1ccc(-c2cnc3ccc(C(=O)N(C)c4ccc(F)cc4)cn23)cn1` [Compound 25, methyl N-[5-[6-[(4-fluorophenyl)-methyl-carbamoyl]imidazo[1,2-a]pyridin-3-yl]-2-pyridyl]carbamate], the pest or weed control at 200 ppm in the test with Phytophthora infestans and in the test on Plasmopara viticola was at least 80% in each case. The inhibition at 20 ppm in the test on Pythium ultimum was at least 80%.

As to `COC(=O)Nc1ccc(-c2cnc3ccc(C(=O)N(C)c4ccccc4)cn23)cn1` [Compound 61, methyl N-[5-[6-[methyl(phenyl)carbamoyl]imidazo[1,2-a]pyridin-3-yl]-2-pyridyl]carbamate], in the test on Plasmopara viticola, the pest or weed control at 200 ppm was at least 80%. The inhibition at 20 ppm with Pythium ultimum is at least 80%.

For the compound `COC(=O)Nc1ccc(-c2cnc3c(NC(C)=O)cc(C(=O)N(C)c4ccc(F)c(OC)c4)cn23)cn1` [Compound 169, methyl N-[5-[8-acetamido-6-[(4-fluoro-3-methoxy-phenyl)-methyl-carbamoyl]imidazo[1,2-a]pyridin-3-yl]-2-pyridyl]carbamate], the pest or weed control at 200 ppm in the test with Phytophthora infestans and with Plasmopara viticola was at least 80% each time. For the same compound, the inhibition at 20 ppm in the test on Pythium ultimum was at least 80%.

In the case of `COC(=O)Nc1ccc(-c2cnc3ccc(C(=O)N(C)c4ccc(C#N)c(OC)c4)cn23)cn1` [Compound 51, methyl N-[5-[6-[(4-cyano-3-methoxy-phenyl)-methyl-carbamoyl]imidazo[1,2-a]pyridin-3-yl]-2-pyridyl]carbamate], the pest or weed control at 200 ppm in the test with Phytophthora infestans and in the test on Plasmopara viticola was at least 80% in each case. Further, the inhibition at 20 ppm in the test on Pythium ultimum was at least 80%.

Regarding `COC(=O)Nc1ccc(-c2cnc3ccc(C(=O)N(CC#N)c4ccc(Cl)cc4)cn23)cc1` [Compound 31, methyl N-[4-[6-[(4-chlorophenyl)-(cyanomethyl)carbamoyl]imidazo[1,2-a]pyridin-3-yl]phenyl]carbamate], the pest or weed control at 200 ppm with Phytophthora infestans and in the test on Plasmopara viticola was at least 80% in each case. Besides, in the test with Pythium ultimum, the inhibition at 20 ppm is at least 80%.

Turning to `COC(=O)Nc1ccc(-c2cnc3ccc(C(=O)N(C)c4ccc(Cl)cc4)cn23)cn1` [Compound 4, methyl N-[5-[6-[(4-chlorophenyl)-methyl-carbamoyl]imidazo[1,2-a]pyridin-3-yl]-2-pyridyl]carbamate], the pest or weed control at 200 ppm in the test with Phytophthora infestans and in the test on Plasmopara viticola was at least 80% throughout. For the same compound, the inhibition at 20 ppm in the test with Pythium ultimum is at least 80%.

Consider `COC(=O)Nc1ccc(-c2cnc3ccc(C(=O)N(C)c4ccc(Cl)c(C)c4)cn23)cn1` [Compound 46, methyl N-[5-[6-[(4-chloro-3-methyl-phenyl)-methyl-carbamoyl]imidazo[1,2-a]pyridin-3-yl]-2-pyridyl]carbamate], for which the pest or weed control at 200 ppm in the test on Phytophthora infestans and with Plasmopara viticola was at least 80% each time. The inhibition at 20 ppm with Pythium ultimum is at least 80%.

Turning to `CCN(C(=O)c1ccc2ncc(-c3ccc(NC(=O)OC)nc3)n2c1)c1ccccc1` [Compound 137, methyl N-[5-[6-[ethyl(phenyl)carbamoyl]imidazo[1,2-a]pyridin-3-yl]-2-pyridyl]carbamate], the pest or weed control at 200 ppm in the test on Plasmopara viticola is at least 80%. Further, the inhibition at 20 ppm in the test with Pythium ultimum was at least 80%.

Turning to `COC(=O)Nc1ccc(-c2cnc3ccc(C(=O)N(C)c4ccc(Cl)cc4)cn23)cc1` [Compound 2, methyl N-[4-[6-[(4-chlorophenyl)-methyl-carbamoyl]imidazo[1,2-a]pyridin-3-yl]phenyl]carbamate], the pest or weed control at 200 ppm in the test on Phytophthora infestans and in the test on Plasmopara viticola was at least 80% throughout. The inhibition at 20 ppm in the test with Pythium ultimum is at least 80%.

`COC(=O)Nc1ccc(-c2cnc3ccc(C(=O)N(C)c4cc(OC)cc(OC)c4)cn23)cn1` [Compound 58, methyl N-[5-[6-[(3,5-dimethoxyphenyl)-methyl-carbamoyl]imidazo[1,2-a]pyridin-3-yl]-2-pyridyl]carbamate]: the pest or weed control at 200 ppm in the test with Plasmopara viticola was at least 80%. Moreover, the inhibition at 20 ppm in the test with Pythium ultimum is at least 80%.

For the compound `CCN(C(=O)c1ccc2ncc(-c3ccc(NC(=O)OC)nc3)n2c1)c1ccc(F)cc1` [Compound 136, methyl N-[5-[6-[ethyl-(4-fluorophenyl)carbamoyl]imidazo[1,2-a]pyridin-3-yl]-2-pyridyl]carbamate], the pest or weed control at 200 ppm in the test with Phytophthora infestans and in the test with Plasmopara viticola was at least 80% throughout. Besides, the inhibition at 20 ppm in the test on Pythium ultimum is at least 80%.

Consider `COC(=O)Nc1ccc(-c2cnc3ccc(C(=O)N(C)c4ccc(C)cc4)cn23)cn1` [Compound 64, methyl N-[5-[6-[methyl (p-tolyl)carbamoyl]imidazo [1,2-a]pyridin-3-yl]-2-pyridyl]carbamate], for which the pest or weed control at 200 ppm in the test on Plasmopara viticola is at least 80%. In the test with Pythium ultimum, the inhibition at 20 ppm was at least 80%.

Take `COCCN(C(=O)c1cc(C)c2ncc(-c3ccc(NC(=O)OC)nc3)n2c1)c1ccc(F)c(OC)c1` [Compound 177, methyl N-[5-[6-[(4-fluoro-3-methoxy-phenyl)-(2-methoxyethyl)carbamoyl]-8-methyl-imidazo[1,2-a]pyridin-3-yl]-2-pyridyl]carbamate]: the pest or weed control at 200 ppm in the test with Phytophthora infestans and in the test with Plasmopara viticola was at least 80% each time.

On to `COC(=O)Nc1ccc(-c2cnc3ccc(C(=O)N(C)c4cccc(OC(F)F)c4)cn23)cc1` [Compound 9, methyl N-[4-[6-[[3-(difluoromethoxy)phenyl]-methyl-carbamoyl]imidazo[1,2-a]pyridin-3-yl]phenyl]carbamate], for which the pest or weed control at 200 ppm with Plasmopara viticola is at least 80%. Moreover, the inhibition at 20 ppm with Pythium ultimum was at least 80%.

For `CCC(=O)Nc1ccc(-c2cnc3ccc(C(=O)N(C)c4ccc(F)c(C)c4)cn23)cn1` [Compound 78, N-(4-fluoro-3-methyl-phenyl)-N-methyl-3-[6-(propanoylamino)-3-pyridyl]imidazo[1,2-a]pyridine-6-carboxamide], in the test with Plasmopara viticola, the pest or weed control at 200 ppm was at least 80%. For the same compound, the inhibition at 20 ppm in the test with Pythium ultimum was at least 80%.

Consider `CCCN(C(=O)c1ccc2ncc(-c3ccc(NC(=O)OC)nc3)n2c1)c1ccc(Cl)c(C)c1` [Compound 126, methyl N-[5-[6-[(4-chloro-3-methyl-phenyl)-propyl-carbamoyl]imidazo[1,2-a]pyridin-3-yl]-2-pyridyl]carbamate], for which the pest or weed control at 200 ppm in the test on Plasmopara viticola is at least 80%. Further, the inhibition at 20 ppm with Pythium ultimum was at least 80%.

Consider `CONC(=O)Nc1ccc(-c2cnc3ccc(C(=O)N(C)c4ccc(F)c(OC)c4)cn23)cn1` [Compound 99], for which the pest or weed control at 200 ppm with Phytophthora infestans is at least 80%. For the same compound, the inhibition at 20 ppm with Pythium ultimum was at least 80%.

In the case of `COC(=O)Nc1ccc(-c2cnc3ccc(C(=O)N(c4ccc(F)cc4)C4CCC4)cn23)cn1` [Compound 109, methyl N-[5-[6-[cyclobutyl-(4-fluorophenyl)carbamoyl]imidazo [1,2-a]pyridin-3-yl]-2-pyridyl]carbamate], the pest or weed control at 200 ppm with Phytophthora infestans is at least 80%. The inhibition at 20 ppm in the test with Pythium ultimum is at least 80%.

Take `CC(=O)Nc1ccc(-c2cnc3ccc(C(=O)N(C)c4ccc(Cl)cc4)cn23)cc1` [Compound 1, 3-(4-acetamidophenyl)-N-(4-chlorophenyl)-N-methyl-imidazo[1,2-a]pyridine-6-carboxamide]: the pest or weed control at 200 ppm in the test with Plasmopara viticola was at least 80%. The inhibition at 20 ppm with Pythium ultimum is at least 80%.

By inhibition is commonly meant the drop in the measured response relative to a control, in per cent.
